Laboratory results from ChEMBL document CHEMBL4368896, “Thiosemicarbazones with tyrosinase inhibitory activity” (Medchemcomm, 2019).
Where “and” joins values, the source holds several entries; their conditions need not be identical. Equal entries are not always repeated.

Columns and labels:
[1] = target: T1, Tyrosinase (Agaricus bisporus, UniProt O42713); assay: Inhibition of mushroom tyrosinase using L-dopa as substrate measured for 150 secs by spectrophotometric analysis
T1 sequence (O42713 whole entry): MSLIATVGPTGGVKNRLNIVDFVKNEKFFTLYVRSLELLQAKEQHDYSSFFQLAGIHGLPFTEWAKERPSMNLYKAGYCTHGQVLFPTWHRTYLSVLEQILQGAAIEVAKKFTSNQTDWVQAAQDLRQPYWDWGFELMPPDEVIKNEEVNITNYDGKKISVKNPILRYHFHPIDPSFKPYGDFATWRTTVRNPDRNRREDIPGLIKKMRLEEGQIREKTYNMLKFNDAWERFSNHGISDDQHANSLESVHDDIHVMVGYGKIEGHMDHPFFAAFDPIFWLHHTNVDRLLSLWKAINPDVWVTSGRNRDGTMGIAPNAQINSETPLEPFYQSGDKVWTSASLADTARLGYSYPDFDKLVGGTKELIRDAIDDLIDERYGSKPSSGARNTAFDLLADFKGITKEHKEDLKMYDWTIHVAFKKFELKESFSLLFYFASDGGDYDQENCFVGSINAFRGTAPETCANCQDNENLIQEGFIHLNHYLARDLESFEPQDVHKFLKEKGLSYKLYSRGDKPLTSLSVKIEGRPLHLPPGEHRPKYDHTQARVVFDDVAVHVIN

[2] = target: T2, Tyrosinase (Mus musculus, UniProt P11344); assay: Inhibition of tyrosinase in mouse B16 cells using L-DOPA as substrate preincubated for 72 hrs followed by substrate addition and measured after 30 mins; format: cell-based
T2 sequence (P11344 whole entry): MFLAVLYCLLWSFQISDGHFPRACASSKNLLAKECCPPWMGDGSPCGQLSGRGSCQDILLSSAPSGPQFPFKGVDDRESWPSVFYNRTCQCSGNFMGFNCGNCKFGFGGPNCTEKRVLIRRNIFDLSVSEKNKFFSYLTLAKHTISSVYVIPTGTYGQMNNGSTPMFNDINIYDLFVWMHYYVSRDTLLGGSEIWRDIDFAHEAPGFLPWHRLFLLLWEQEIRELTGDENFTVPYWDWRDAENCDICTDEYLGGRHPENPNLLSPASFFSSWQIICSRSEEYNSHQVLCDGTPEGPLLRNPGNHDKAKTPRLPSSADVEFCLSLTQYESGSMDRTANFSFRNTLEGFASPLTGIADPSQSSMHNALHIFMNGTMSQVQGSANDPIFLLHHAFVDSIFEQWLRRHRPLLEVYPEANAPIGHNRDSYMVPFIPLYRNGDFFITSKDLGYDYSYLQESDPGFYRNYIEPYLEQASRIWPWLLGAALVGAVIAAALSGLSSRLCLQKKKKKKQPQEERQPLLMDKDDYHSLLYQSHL

[3] = target: T3, Tyrosinase (Agaricus bisporus) (UniProt O42713); assay: (§1) Mixed-type inhibition of mushroom tyrosinase using L-dopa as substrate preincubated for 5 mins followed by substrate addition and measured for 3 mins
T3 sequence (whole entry): T1 sequence (O42713 whole entry)

[4] = target: T1, Tyrosinase; assay: as §1
[5] = target: T1, Tyrosinase; assay: Non-competitive inhibition of mushroom tyrosinase using L-dopa as substrate preincubated for 5 mins followed by substrate addition and measured for 5 mins
[6] = target: T1, Tyrosinase; assay: Inhibition of mushroom tyrosinase monophenolase activity using L-tyrosine as substrate
[7] = target: T3, Tyrosinase (Agaricus bisporus); assay: (§2) Mixed-type inhibition of mushroom tyrosinase by Lineweaver-Burk plot analysis
[8] = target: T1, Tyrosinase; assay: as §2
[9] = target: T1, Tyrosinase
[10] = target: T1, Tyrosinase; assay: Inhibition of mushroom tyrosinase using L-dopa as substrate preincubated for 10 mins followed by substrate addition and measured for 1 min
[11] = target: T1, Tyrosinase; assay: Inhibition of mushroom tyrosinase using L-dopa as substrate preincubated for 2 mins followed by substrate addition and measured for 5 mins by spectrophotometric analysis
[12] = target: T1, Tyrosinase; assay: Non-competitive inhibition of mushroom tyrosinase by Lineweaver-Burk plot analysis
[13] = target: T3, Tyrosinase (Agaricus bisporus); assay: Mixed-type inhibition of mushroom tyrosinase after 10 mins by Lineweaver-Burk plot analysis
[14] = target: T1, Tyrosinase; assay: Inhibition of mushroom tyrosinase monophenolase activity using L-tyrosine as substrate after 10 mins by spectrophotometric analysis
[15] = target: T1, Tyrosinase; assay: Reversible inhibition of mushroom tyrosinase after 10 mins by Lineweaver-Burk plot analysis
[16] = target: T1, Tyrosinase; assay: Inhibition of mushroom tyrosinase diphenolase activity using L-dopa as substrate after 10 mins by spectrophotometric analysis
[17] = target: T1, Tyrosinase; remark: listed apart in the source
Description: (§5) Reversible mixed-type inhibition of mushroom tyrosinase using L-dopa as substrate by Lineweaver-Burk plot analysis

[18] = target: T3, Tyrosinase (Agaricus bisporus)
Description: as §5

[19] = target: T3, Tyrosinase (Agaricus bisporus); assay: (§3) Mixed-type inhibition of mushroom tyrosinase using L-tyrosine as substrate by Lineweaver-Burk plot analysis
[20] = target: T1, Tyrosinase; assay: as §3
[21] = target: T3, Tyrosinase (Agaricus bisporus); assay: (§4) Reversible mixed-type inhibition of mushroom tyrosinase by Lineweaver-Burk plot analysis
[22] = target: T1, Tyrosinase; assay: as §4
[23] = target: T1, Tyrosinase; assay: Reversible competitive inhibition of mushroom tyrosinase after 10 mins by Lineweaver-Burk plot analysis
[24] = target: T1, Tyrosinase; assay: Reversible competitive inhibition of mushroom tyrosinase using L-dopa as substrate preincubated for 2 mins followed by substrate addition and measured for 5 mins by Lineweaver-Burk plot analysis

## NC(=S)N/N=C/c1cc(COC(=O)C2CCCC2)cs1
[1]
  IC50: 140 nM

## CC(C)/C(=N\NC(N)=S)c1ccccc1
[2]
  IC50: < 2300 nM

## CCCCCC/C(=N\NC(N)=S)c1ccccc1
[2]
  IC50: < 1000 nM

## NC(=S)N/N=C/c1ccccc1 [PHENYLTHIOSEMICARBAZONE]
[2]
  IC50: 10200 nM
[3]
  Kis: 93 µM
[4]
  Ki: 930 nM
[5]
  Ki: 3700 nM

## NC(=S)N/N=C/c1ccc(Cl)cc1
[6]
  IC50: 6700 nM
[7]
  Kis: 2.49 µM
[8]
  Ki: 1250 nM
[9]
  IC50: 1820 nM

## CCOc1ccc(/C=N/NC(N)=S)cc1
[10]
  IC50: 1920 nM

## CNC(=S)N/N=C(\C)c1ccccc1O
[11]
  IC50: 108000 nM

## CCCCOCCOc1ccc(/C=N/NC(N)=S)cc1
[10]
  IC50: 920 nM

## CCCCC/C(=N\NC(N)=S)c1ccccc1
[2]
  IC50: < 1000 nM

## C/C(=N\NC(N)=S)c1cccs1
[9]
  IC50: 1410 nM

## NC(=S)N/N=C/c1cc(COC(=O)C2CCCCC2)cs1
[1]
  IC50: 136 nM

## NC(=S)N/N=C/c1cc(CO)cs1
[1]
  IC50: 670 nM

## CC(C)COc1ccc(/C=N/NC(N)=S)cc1
[10]
  IC50: 2210 nM

## COCCOCCOc1ccc(/C=N/NC(N)=S)cc1
[10]
  IC50: 340 nM

## NC(=S)N/N=C/c1ccc(Oc2ccccc2)cc1
[10]
  IC50: 980 nM

## NC(=S)N/N=C/c1ccc(Br)cc1
[10]
  IC50: 280 nM

## C/C(=N\NC(N)=S)c1ccco1
[9]
  IC50: 824 nM

## CCCOc1ccc(/C=N/NC(N)=S)cc1
[10]
  IC50: 3030 nM

## C/C(=N\NC(N)=S)c1ccc[nH]1
[9]
  IC50: 4150 nM

## NC(=S)N/N=C/c1ccc(O)cc1O
[10]
  IC50: 180 nM

## NC(=S)N/N=C/c1ccc(OCCO)cc1
[10]
  IC50: 530 nM

## NC(=S)N/N=C/c1ccc(OCOC(CO)CO)cc1
[10]
  IC50: 940 nM

## NC(=S)N/N=C/c1cc(COCCO)cs1
[1]
  IC50: 1420 nM

## NC(=S)N/N=C/c1ccccc1Cl
[6]
  IC50: 15400 nM
[12]
  Ki: 1200 nM
[9]
  IC50: 1220 nM

## CN(C)c1ccc(/C=N/NC(=S)Nc2ccccc2)cc1
[6]
  IC50: 1780 nM
[12]
  Ki: 770 nM
[9]
  IC50: 800 nM

## CCC(=O)OCc1csc(/C=N/NC(N)=S)c1
[1]
  IC50: 161 nM

## NC(=S)N/N=C/c1cc(COC=O)cs1
[1]
  IC50: 196 nM

## NC(=S)N/N=C/c1ccc(OCOCCO)cc1
[10]
  IC50: 370 nM

## NC(=S)N/N=C/c1ccc(O)cc1
[13]
  Kis: 6.79 µM
[14]
  IC50: 760 nM
[15]
  Ki: 2820 nM
[16]
  IC50: 3800 nM
[10]
  IC50: 410 nM

## COCc1csc(/C=N/NC(N)=S)c1
[1]
  IC50: 740 nM

## CCC/C(=N\NC(N)=S)c1ccccc1
[2]
  IC50: < 1000 nM

## NC(=S)N/N=C/c1ccc[nH]1
[17]
  Ki: 80 nM
[9]
  IC50: 3990 nM
[18]
  Kis: 0.29 µM

## CNC(=S)N/N=C(\C)c1ccc(OC)cc1O
[11]
  IC50: 18000 nM

## CCCC/C(=N\NC(N)=S)c1ccccc1
[2]
  IC50: 1200 nM

## CN(C)c1ccc(/C=N/NC(N)=S)cc1
[6]
  IC50: 1540 nM
[19]
  Kis: 6.49 µM
[20]
  Ki: 1770 nM
[9]
  IC50: 2020 nM

## NC(=S)N/N=C/C=C/c1ccccc1
[21]
  Kis: 8.85 µM
[22]
  Ki: 4450 nM

## NC(=S)N/N=C/c1ccco1
[17]
  Ki: 600 nM
[9]
  IC50: 2350 nM
[18]
  Kis: 1.18 µM

## NC(=S)N/N=C/c1ccc(O)c(O)c1
[10]
  IC50: > 40000 nM

## NC(=S)N/N=C/c1cc(COC(=O)c2ccccc2)cs1
[1]
  IC50: 68 nM

## NC(=S)N/N=C/c1cccc(O)c1
[10]
  IC50: 3900 nM

## CC(C)Oc1ccc(/C=N/NC(N)=S)cc1
[10]
  IC50: 900 nM

## CC/C(=N\N=C(\N)S)c1ccccc1
[2]
  IC50: < 1000 nM

## NC(=S)N/N=C/c1cc(O)cc(O)c1
[10]
  IC50: > 30000 nM

## CCCCC(=O)OCc1csc(/C=N/NC(N)=S)c1
[1]
  IC50: 110 nM

## CCCC(=O)OCc1csc(/C=N/NC(N)=S)c1
[1]
  IC50: 105 nM

## C=CCOc1ccc(/C=N/NC(N)=S)cc1
[10]
  IC50: 1290 nM

## COCCOc1ccc(/C=N/NC(N)=S)cc1
[10]
  IC50: 750 nM

## CC(C)C/C(=N\NC(N)=S)c1ccccc1
[2]
  IC50: < 1000 nM

## CNC(=S)N/N=C(\C)c1ccccc1
[11]
  IC50: 213000 nM

## CCCCCCCCCCC/C(=N\NC(N)=S)c1ccccc1
[2]
  IC50: < 1000 nM

## CCCCCOc1ccc(/C=N/NC(N)=S)cc1
[10]
  IC50: 1090 nM

## COc1ccc(/C=N/NC(N)=S)cc1O
[10]
  IC50: 4880 nM

## C/C(=N\N=C(/N)S)c1ccccc1 [PHENYL(METHYL)THIOSEMICARBAZONE]
[2]
  IC50: 2000 nM
[13]
  Kis: 0.83 µM and 1.4 µM
[23]
  Ki: 380 nM

## N=C(S)N/N=C/c1ccc(Oc2ccc(F)cc2)cc1
[10]
  IC50: 1460 nM

## CCOCc1csc(/C=N/NC(N)=S)c1
[1]
  IC50: 490 nM

## COc1ccc(OC)c(/C=N/NC(N)=S)c1
[10]
  IC50: > 50000 nM

## COCCCCOc1ccc(/C=N/NC(N)=S)cc1
[10]
  IC50: 410 nM

## CCCCOc1ccc(/C=N/NC(N)=S)cc1
[10]
  IC50: 1310 nM

## CNC(=S)N/N=C(\C)c1ccc(O)cc1O
[24]
  Ki: 5000 nM
[11]
  IC50: 6000 nM

## CNC(=S)N/N=C(\C)c1ccc(OC)cc1
[11]
  IC50: 65000 nM

## CC(=O)OCc1csc(/C=N/NC(N)=S)c1
[1]
  IC50: 340 nM

## COc1cc(/C=N/NC(N)=S)ccc1O
[10]
  IC50: 5680 nM

## NC(=S)N/N=C/c1ccc(O)cc1Br
[10]
  IC50: 330 nM

## NC(=S)N/N=C/c1cccs1
[17]
  Ki: 167000 nM
[9]
  IC50: 430 nM
[18]
  Kis: 2.59 µM

## COc1ccc(/C=N/NC(N)=S)cc1
[2]
  IC50: 139000 nM
[13]
  Kis: 15.1 µM
[14]
  IC50: 7000 nM
[15]
  Ki: 1470 nM
[16]
  IC50: 2620 nM
[10]
  IC50: 1480 nM

## NC(=S)N/N=C/c1ccc(-c2ccccc2)s1
[1]
  IC50: 670 nM

## NC(=S)N/N=C/c1ccccc1O
[10]
  IC50: 380 nM
